We go through 6 compounds from article PMC3304000 (Bioorganic & medicinal chemistry, 2012).

Series [1] relates to Drug sensitive Mtb clinical strain #1. The experiment in a line: MIC against clinical Mtb strain in 7H9/glucose/glycerol/BSA/0.05% Tween 80. The class given is cell-based. The note with it: Mycobacterium tuberculosis.
Series [2] can be described thus: Stability in simulated gastric fluid. The note with it: after a 15-min incubation.
Series [3] concerns Drug sensitive Mtb clinical strain #2. The experiment in a line: MIC against clinical Mtb strain in 7H9/glucose/glycerol/BSA/0.05% Tween 80. Conditions: Mycobacterium tuberculosis. The class given is cell-based.
Series [4] can be described thus: In vitro stability in rat liver microsomes. The note with it: after a 15-min incubation. On the technique in general: Liver microsomes are vesicles of endoplasmic reticulum, rich in cytochrome P450 enzymes.
The test system of series [5] is twelve MDR- and XDR-Mtb strains. Conditions: cited from earlier work.
Series [6] deals with Mtb H37Rv luxAB luminescence strain. Nature of the series: microbe, parasite or virus in culture. The class given is cell-based. The note with it: Mycobacterium tuberculosis, read-out: LORA MIC (mean ± SD).

In brackets after ≈: the same amount, converted by molar mass. Several values for one entry are separate records, joined by “and”; a condition that tells them apart may be missing. Equal values may be shown once.

`O=C(OCc1ccccc1)c1coc(-c2ccccc2)n1` [Compound 2]: the MIC in series [1] was 4.4 µM to 8.9 µM and 1.25 µg/mL to 2.5 µg/mL; in series [3], 2.2 to 4.4 µM (≈ 0.614 to 1.23 µg/mL). Further, the “compound remaining in simulated gastric fluid” value in series [2] is recorded as 0.6%. Besides, the “compound remaining in rat liver microsomes” value in series [4] is recorded as 11%. In series [1], `O=C(OCc1ccccc1)c1csc(-c2ccccc2)n1` [Compound 5] returned an MIC of 10 µg/mL (≈ 33.9 µM). Regarding `Cc1ccn2c(C(=O)OCc3ccccc3)c(C)nc2c1` [Compound 11, benzyl 2,7-dimethylimidazo[1,2-a]pyridine-3-carboxylate], the MIC in series [1] was less than 0.01 µg/mL. As for `Cc1ccn2c(C(=O)NCc3ccccc3)c(C)nc2c1` [Compound 12, N-benzyl-2,7-dimethylimidazo[1,2-a]pyridine-3-carboxamide], the “MIC against a panel of twelve MDR- and XDR-Mtb strains” value in series [5] is 0.07 to 2.3 µM. Further, in series [2], the “compound remaining in simulated gastric fluid” value is reported as 100%.

`Cc1ccn2c(C(=O)OCc3ccccc3)c(-c3ccccc3)nc2c1` [Compound 9, benzyl 7-methyl-2-phenylimidazo[1,2-a]pyridine-3-carboxylate]: the MIC in series [6] was 22 µM (≈ 7.53 µg/mL). `O=[N+]([O-])c1cn2c(n1)OC[C@@H](OCc1ccc(OC(F)(F)F)cc1)C2` [PA-824, reference compound]: the MIC in series [1] was 0.45 µM to 0.86 µM and 0.16 µg/mL to 0.31 µg/mL.
